Counter-ions that a name gives are not always drawn.
Columns and labels:
Bel-7402 [1] = assay: Cytotoxicity against human Bel-7402 cells assessed as inhibition rate at 5 uM incubated for 72 hrs by MTT assay relative to control; type: functional; set-up: scale not given: the % may be the effect or the level left
Bel-7402 [2] = assay: cells; conditions: Homo sapiens, Bel-7402, 24 h, read-out: Activity
Bel-7402 [3] = assay: Cytotoxicity against human Bel-7402 cells assessed as reduction in cell viability incubated for 72 hrs by MTT assay; type: functional, cell-based; conditions: Bel-7402, 72 h
HeLa = assay: Cytotoxicity against human HeLa cells assessed as reduction in cell viability incubated for 72 hrs by MTT assay; type: functional, cell-based
[4] = Cytotoxicity against human HepG2 cells assessed as reduction in cell viability incubated for 72 hrs by MTT assay; type: toxicity, cell-based
ECa-109 cell line = assay: Cytotoxicity against human Eca-109 cells assessed as reduction in cell viability incubated for 72 hrs by MTT assay; type: functional, cell-based; conditions: ECa-109, 72 h
PANC-1 = assay: Cytotoxicity against human PANC-1 cells assessed as reduction in cell viability incubated for 72 hrs by MTT assay; type: functional, cell-based; conditions: PANC-1, 72 h
[5] = Cytotoxicity against human Biu-87 cells assessed as reduction in cell viability incubated for 72 hrs by MTT assay; type: functional, cell-based; conditions: BIU87, 72 h

Row | Structure (SMILES) | Activity (Bel-7402 [1]) | other results
1 | CC[C@H](C)/C=C(C)/C=C/C1=CC2=C(Cl)C(=O)[C@](C)(OC(C)=O)C(=O)C2=CN1Cc1ccc(OC)cc1 | 6.58% | –
2 | CC[C@H](C)/C=C(C)/C=C/C1=CC2=C(Cl)C(=O)[C@](C)(O)C(=O)C2=CN1Cc1ccc(C)cc1 | 20.52% | –
3 | CC[C@H](C)/C=C(C)/C=C/C1=CC2=C(Cl)C(=O)[C@](C)(OC(C)=O)C(=O)C2=CN1c1ccc(OC)c(OC)c1 | 8.16% | –
4 | CC[C@H](C)/C=C(C)/C=C/C1=CC2=C(Cl)C(=O)[C@](C)(O)C(=O)C2=CN1c1ccc(C(F)(F)F)cc1 | 63.16% | –
5 | CC[C@H](C)/C=C(C)/C=C/C1=CC2=C(Cl)C(=O)[C@](C)(OC(C)=O)C(=O)C2=CN1c1ccc(OC(F)(F)F)cc1 | 22.81% | –
6 | N#CC(=C(/N)Sc1ccccc1N)/C(C#N)=C(\N)Sc1ccccc1N | – | viability at 20 µM (Bel-7402 [2]): 88.3%
7 | CC[C@H](C)/C=C(C)/C=C/C1=CC2=C(Cl)C(=O)[C@](C)(OC(C)=O)C(=O)C2=CN1c1ccc(OC)cc1 | 7.45% | –
8 | CC[C@H](C)/C=C(C)/C=C/C1=CC2=C(Cl)C(=O)[C@](C)(OC(C)=O)C(=O)C2=CN1Cc1ccc(C(F)(F)F)nc1 | 21.53% | –
9 | CC[C@H](C)/C=C(C)/C=C/C1=CC2=C(Cl)C(=O)[C@](C)(OC(C)=O)C(=O)C2=CN1c1cc(OC)cc(OC)c1 | 7.94% | –
10 | CC[C@H](C)/C=C(C)/C=C/C1=CC2=C(Cl)C(=O)[C@](C)(OC(C)=O)C(=O)C2=CN1Cc1ccc(C(F)(F)F)cc1 | 44.16% | –
11 | COc1cccc2c1C(=O)c1c(O)c3c(c(O)c1C2=O)C[C@@](O)(C(=O)CO)C[C@@H]3O[C@H]1C[C@H](N)[C@H](O)[C@H](C)O1 [DOXORUBICIN HYDROCHLORIDE] | – | IC50 (Bel-7402 [3]): 369 nM; IC50 (HeLa): 602 nM; IC50 at 72 h [4]: 450 nM; IC50 (ECa-109 cell line): 201 nM
12 | CC[C@H](C)/C=C(C)/C=C/C1=CC2=C(Cl)C(=O)[C@](C)(OC(C)=O)C(=O)C2=CN1c1ccc(C(F)(F)F)cc1 | 28.9% | –
13 | CC[C@H](C)/C=C(C)/C=C/C1=CC2=C(Cl)C(=O)[C@](C)(O)C(=O)C2=CN1Cc1ccc(C(F)(F)F)cn1 | 10.55% | –
14 | CC[C@H](C)/C=C(C)/C=C/C1=CC2=C(Cl)C(=O)[C@](C)(OC(C)=O)C(=O)C2=CN1CCc1cccc(C(F)(F)F)c1 | 35.93% | –
15 | CC[C@H](C)/C=C(C)/C=C/C1=CC2=C(Cl)C(=O)[C@](C)(OC(C)=O)C(=O)C2=CN1Cc1ccc(C)cc1 | 16.2% | –
16 | CC[C@H](C)/C=C(C)/C=C/C1=CC2=C(Cl)C(=O)[C@](C)(O)C(=O)C2=CN1Cc1ccc(C(F)(F)F)cc1 | 81.73% | IC50 (Bel-7402 [3]): 1450 nM; IC50 (PANC-1): 1440 nM; IC50 (HeLa): 2400 nM; IC50 at 72 h [4]: 3360 nM; IC50 (ECa-109 cell line): 1480 nM; IC50 [5]: 3100 nM
17 | CC[C@H](C)/C=C(C)/C=C/C1=CC2=C(Cl)C(=O)[C@](C)(O)C(=O)C2=CN1CCc1cccc(C(F)(F)F)c1 | 45.76% | –
18 | CC[C@H](C)/C=C(C)/C=C/C1=CC2=C(Cl)C(=O)[C@](C)(O)C(=O)C2=CN1Cc1ccc(OC)cc1 | 36.51% | –
19 | CC[C@H](C)/C=C(C)/C=C/C1=CC2=C(Cl)C(=O)[C@](C)(O)C(=O)C2=CN1c1ccc(OC)c(OC)c1 | 5.75% | –
20 | C=CCN1C=C2C(=O)[C@@](C)(OC(C)=O)C(=O)C(Cl)=C2C=C1/C=C/C(C)=C/[C@@H](C)CC | 8.65% | –
21 | CC[C@H](C)/C=C(C)/C=C/C1=CC2=C(Cl)C(=O)[C@](C)(O)C(=O)C2=CN1c1cc(OC)cc(OC)c1 | 11.14% | –
22 | CC[C@H](C)/C=C(C)/C=C/C1=CC2=C(Cl)C(=O)[C@](C)(O)C(=O)C2=CN1Cc1ccc(C(F)(F)F)nc1 | 12.09% | –
23 | C#CCN1C=C2C(=O)[C@@](C)(OC(C)=O)C(=O)C(Cl)=C2C=C1/C=C/C(C)=C/[C@@H](C)CC | 6.81% | –
24 | CC[C@H](C)/C=C(C)/C=C/C1=CC2=C(Cl)C(=O)[C@](C)(O)C(=O)C2=CN1c1cc(OC)c(OC)c(OC)c1 | 11.27% | –
25 | CC[C@H](C)/C=C(C)/C=C/C1=CC2=C(Cl)C(=O)[C@](C)(OC(C)=O)C(=O)C2=CN1Cc1ccc(OC(F)(F)F)cc1 | 27.46% | –
26 | CC[C@H](C)/C=C(C)/C=C/C1=CC2=C(Cl)C(=O)[C@](C)(O)C(=O)C2=CN1c1ccc(OC(F)(F)F)cc1 | 43.16% | –
27 | CC[C@H](C)/C=C(C)/C=C/C1=CC2=C(Cl)C(=O)[C@](C)(OC(C)=O)C(=O)C2=CN1Cc1ccc(C(F)(F)F)cn1 | 21.49% | –
28 | CC[C@H](C)/C=C(C)/C=C/C1=CC2=C(Cl)C(=O)[C@](C)(OC(C)=O)C(=O)C2=CN1c1cc(OC)c(OC)c(OC)c1 | 9.61% | –

From ChEMBL document CHEMBL5154737, “Semisynthesis and biological evaluation of (+)-sclerotiorin derivatives as antitumor agents for the treatment of hepatocellular carcinoma” (Eur J Med Chem, 2022)
